# Reference: US20260158015A1 (Universite De Bordeaux, priority 2021, published 2026)
# Legend:
# [1] = MTT cytotoxicity (CC50) in Calu3 cells; format: cell-based; settings: human, four-parameter sigmoidal fit, unit inferred
# Procedure: (§1) MTT cell viability assay was performed following furnisher protocols. Cells were seeded at the density of 20,000 cells/well in a 96 well plate containing 100 μL complete DMEM (Gibco, USA) supplemented with 10% FBS (Gibco, USA) and 1% Penstrep (Gibco, USA). Cells were incubated for 12 hours at 37° C. in humidified 5% CO2 incubator for adherence. After 12-hour incubation, the media was replaced with fresh media, and cells were treated with compounds. Untreated cells were considered as negative control, DMSO treated cells were considered as the vehicles. After the treatment, cells were incubated at 37° C. in humidified 5% CO2 incubator. 48-hour post-treatment, 20 μL of MTT substrate (5 mg/mL) was added in each well and incubated for 4 additional hours at 37° C. in the dark. The media was then carefully removed, and 492 nm absorbance was measured.
# [2] = MTT cytotoxicity (CC50) in 293-ACE2 cells; format: cell-based; settings: human, four-parameter sigmoidal fit, unit inferred
# Procedure: as §1
# [3] = MTT cytotoxicity (CC50) in A549-ACE2 cells; format: cell-based; settings: human, A 549-ACE2 cells, four-parameter sigmoidal fit, unit inferred
# Procedure: as §1
# VSVg pseudotyped LV = format: cell-based
# SARS-CoV-2 = SARS-CoV-2 inhibition summarised over all the cell lines; format: cell-based; settings: Severe acute respiratory syndrome coronavirus 2
# [4] = tested on: SARS-CoV-2 reference strain; test: SARS-CoV-2 replication in A549-ACE2 cells (viral genome copies, RT-qPCR); format: cell-based
# [5] = tested on: lentiviral vectors pseudotyped with the SARS-CoV-2 Spike protein (CoV-2 LV); test: microbe, parasite or virus in culture; format: cell-based
# [6] = tested on: SARS-CoV-2 reference strain; test: SARS-CoV-2 replication in Calu3 cells (viral genome copies, RT-qPCR); format: cell-based
# [7] = tested on: HEK-293T, A549, Calu3 and Caco2 cell lines
SMILES,CC50 at 48 h [1] [µM],CC50 at 48 h [2] [µM],CC50 at 48 h [3] [µM],effect on the VSVg LVs infectivity (VSVg pseudotyped LV),"inhibition at 1 µM (SARS-CoV-2; at 1 μM, pulmonary A549-ACE2 and Calu3 cells, read-out: inhibition of virus replication) [%]",IC50 (SARS-CoV-2; read-out: IC50 among all the cell lines) [µM],comparative efficiency in inhibiting the SARS-CoV-2 replication [4],"IC50 ([4]; Severe acute respiratory syndrome coronavirus 2, A549-ACE2, A 549-ACE2 cells, apparent IC50, unit inferred) [µM]",decrease of the viral infectivity (CoV-2 LVs) [5] [%],"IC50 ([5]; Severe acute respiratory syndrome coronavirus 2, 293-ACE2 cells, apparent IC50, unit inferred) [µM]","IC50 ([6]; Severe acute respiratory syndrome coronavirus 2, Calu-3, SARS-CoV-2 reference strain, 24 hours, read-out: concentration giving 50% inhibition of the viral replication) [µM]","IC50 ([6]; Severe acute respiratory syndrome coronavirus 2, Calu-3, apparent IC50, unit inferred, read-out: IC50) [µM]","cytotoxicity in various cell lines ([7]; various cell lines, no concentration stated)","cytotoxicity (MTT assay) ([7]; within the 0-50 μM range, HEK-293T, A549, Calu3 and Caco2)"
O=S(=O)(c1ccccc1)n1c(-c2cncc(-c3cc4cc(OCc5ccccc5)ccc4n3S(=O)(=O)c3ccccc3)c2)cc2cc(OCc3ccccc3)ccc21 [AB-00011778],> 30,> 50,> 30,without significant effect,40 to 60,0.25 to 5,more efficient than the Ritonavir molecule,0.25,40 to 80,1,~1,1,without showing significant cyto-toxicity,no or poor cytotoxicity
"CC(C)c1nc(CN(C)C(=O)N[C@H](C(=O)N[C@@H](Cc2ccccc2)C[C@H](O)[C@H](Cc2ccccc2)NC(=O)OCc2cncs2)C(C)C)cs1 [Ritonavir, reference compound]",,,,,,,AB-00011778 was more efficient than the Ritonavir molecule,,,,,,,
